# Experimental data reported in patent publication US9670204B2, “Compounds and pharmaceutical compositions thereof for the treatment of inflammatory disorders” (Galapagos NV, priority 2013, dated 2017).
# What was measured:
# [1] = molecular target: T1, hENPP2 (UniProtKB/SwissProt Q13822) (Homo sapiens (Human), UniProt Q13822); test: fluorescent hENPP2 biochemical assay, FS-3 as substrate; settings: read-out: FS3-IC50
# Protocol: Compound IC50 values are determined in a fluorescent hENPP2 (UniProtKB/SwissProt Sequence ref Q13822) biochemical assay using the fluorogenic autotaxin substrate FS-3 as substrate. FS-3 is a doubly labeled analog of LPC wherein the fluorophore is quenched through intramolecular energy transfer. Without hENPP2, the emission of the probe is quenched. If the substrate is hydrolyzed by hENPP2, the emission of the probe is not quenched anymore resulting in a fluorescence increase.
# The enzyme is diluted in 50 mM Tris-HCl pH 8.0, 250 mM NaCl, 5 mM KCl, 1 mM MgCl2, 1 mM CaCl2, 0.1% fatty acid free BSA in a total volume of 20 μL. Enzyme mixture is added to compounds and the resulting mixture is incubated for 30 min at room temperature under shaking. The reaction is started by the addition of 20 μL of 0.75 μM FS-3 diluted in the same buffer as described above and the mixture is incubated at 30° C. for 30 min. Fluorescence is read on the Envision (Excitation 485 nm, emission 520 nm).
# [2] = molecular target: T1, hENPP2; test: hENPP2 biochemical assay, LPC as substrate; settings: LPC (palmitoyl 16:0) as substrate
# Method in brief: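 Human ENPP2 in 50 mM Tris-HCl pH 8.5, 500 mM NaCl, 5 mM KCl, 10 mM CaCl2, 0.1% fatty-acid-free BSA, reacted 30 min at 37 °C with LPC 16:0 (150 µM solution added 1:1). Released choline measured via choline oxidase/peroxidase/TOOS/4-aminoantipyrine quinoneimine dye at 555 nm; IC50 reported.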
smiles,measurement,setting,value
"CCc1nc2ccc(N3CCN(C(=O)C(C)=O)CC3)cn2c1N(C)c1nc(-c2ccc(F)cc2)cs1 [Compound 200, 1-(4-(2-ethyl-3-((4-(4-fluorophenyl)thiazol-2-yl)(methyl)amino)imidazo[1,2-a]pyridin-6-yl)piperazin-1-yl)propane-1,2-dione]",IC50,[1],0.01 to 100 nM
same,IC50,[2],> 1000 nM
"CCc1nc2ccc(C3CCN(S(N)(=O)=O)CC3)cn2c1N(C)c1nc(-c2ccc(F)cc2)cs1 [Compound 92, 4-(2-ethyl-3-((4-(4-fluorophenyl)thiazol-2-yl)(methyl)amino)imidazo[1,2-a]pyridin-6-yl)piperidine-1-sulfonamide]",IC50,[1],0.01 to 100 nM
same,IC50,[2],> 1000 nM
"CCc1nc2ccc(C3CCN(S(C)(=O)=O)CC3)cn2c1N(C)c1nc(-c2ccc(F)cc2O)cs1 [Compound 224, 2-(2-((2-ethyl-6-(1-(methylsulfonyl)piperidin-4-yl)imidazo [1,2-a]pyridin-3-yl)(methyl)amino)thiazol-4-yl)-5-fluorophenol]",IC50,[1],0.01 to 100 nM
same,IC50,[2],> 1000 nM
"CCc1nc2ccc(C3CCN(CC(=O)N4CC(O)C4)CC3)cn2c1N(C)c1nc(-c2ccc(F)cc2C#N)c(C)s1 [Compound 172, 2-(2-((2-ethyl-6-(1-(2-(3-hydroxyazetidin-1-yl)-2-oxoethyl)piperidin-4-yl)imidazo[1,2-a]pyridin-3-yl)(methyl)amino)-5-methylthiazol-4-yl)-5-fluorobenzonitrile]",IC50,[1],0.01 to 100 nM
same,IC50,[2],100 to 500 nM
"CCc1nc2ccc(C3=CCN(S(C)(=O)=O)CC3)cn2c1N(C)c1nc(-c2ccc(F)cc2)c(F)s1 [Compound 77, N-(2-ethyl-6-(1-(methylsulfonyl)-1,2,3,6-tetrahydropyridin-4-yl)imidazo[1,2-a]pyridin-3-yl)-5-fluoro-4-(4-fluorophenyl)-N-methylthiazol-2-amine]",IC50,[1],0.01 to 100 nM
same,IC50,[2],> 1000 nM
"CCc1nc2ccc(C3=CCN(C(=O)Nc4cccs4)CC3)cn2c1N(C)c1nc(-c2ccc(F)cc2)cs1 [Compound 208, 4-(2-ethyl-3-((4-(4-fluorophenyl)thiazol-2-yl)(methyl)amino)imidazo[1,2-a]pyridin-6-yl)-N-(thiophen-2-yl)-5,6-dihydropyridine-1(2H)-carboxamide]",IC50,[1],0.01 to 100 nM
same,IC50,[2],> 1000 nM
"CCc1nc2ccc(C3CCN(CC(=O)N4CC[C@H](C#N)C4)CC3)cn2c1N(C)c1nc(-c2ccc(F)cc2)cs1 [Compound 116, (S)-1-(2-(4-(2-ethyl-3-((4-(4-fluorophenyl)thiazol-2-yl)(methyl)amino)imidazol[1,2-a]pyridin-6-yl)piperidin-1-yl)acetoyl)pyrrolidine-3-carbonitrile]",IC50,[1],0.01 to 100 nM
same,IC50,[2],100 to 500 nM
"CCc1nc2ccc(N3CCN(C(=O)OC(C)(C)C)CC3=O)cn2c1N(C)c1nc(-c2ccc(Cl)cc2)cs1 [Compound 63, tert-butyl 4-(3-((4-(4-chlorophenyl)thiazol-2-yl)(methyl)amino)-2-ethylimidazo[1,2-a]pyridin-6-yl)-3-oxopiperazine-1-carboxylate]",IC50,[1],0.01 to 100 nM
same,IC50,[2],> 1000 nM
"CCc1nc2ccc(N3CCN(C(=O)OC(C)(C)C)CC3=O)cn2c1N(C)c1nc(-c2ccc(F)cc2)cs1 [Compound 62, 4-(2-Ethyl-3-{[4-(4-fluoro-phenyl)-thiazol-2-yl]-methyl-amino}-imidazo[1,2-a]pyridin-6-yl)-3-oxo-piperazine-1-carboxylic acid tert-butyl est]",IC50,[1],0.01 to 100 nM
same,IC50,[2],> 1000 nM
"CCc1nc2ccc(C3CCN(S(=O)(=O)CCCN)CC3)cn2c1N(C)c1nc(-c2ccc(F)cc2)cs1 [Compound 90, N-(6-(1-(3-aminopropylsulfonyl)piperidin-4-yl)-2-ethylimidazo[1,2-a]pyridin-3-yl)-4-(4-fluorophenyl)-N-methylthiazol-2-amine]",IC50,[1],0.01 to 100 nM
same,IC50,[2],500 to 1000 nM
"CCOC(=O)CN1CC=C(c2ccc3nc(CC)c(N(C)c4nc(-c5ccc(F)cc5)cs4)n3c2)CC1 [Compound 108, ethyl 2-(4-(2-ethyl-3-((4-(4-fluorophenyl)thiazol-2-yl)(methyl)amino)imidazo[1,2-a]pyridin-6-yl)-5,6-dihydropyridin-1(2H)-yl)acetate]",IC50,[1],0.01 to 100 nM
same,IC50,[2],> 1000 nM
"CCc1nc2ccc(C3CCN(S(C)(=O)=O)CC3)cn2c1N(C)c1nc(-c2ccc(C(C)(C)C)cc2)cs1 [Compound 81, 4-(4-tert-butylphenyl)-N-(2-ethyl-6-(1-(methylsulfonyl)piperidin-4-yl)imidazo [1,2-a]pyridin-3-yl)-N-methylthiazol-2-amine]",IC50,[1],0.01 to 100 nM
same,IC50,[2],> 1000 nM
"CCc1nc2ccc(N3CCN(S(=O)(=O)CCCN4CCCC4)CC3)cn2c1N(C)c1nc(-c2ccc(F)cc2)cs1 [Compound 57, N-(2-ethyl-6-(4-(3-(pyrrolidin-1-yl)propylsulfonyl)piperazin-1-yl)imidazo [1,2-a]pyridin-3-yl)-4-(4-fluorophenyl)-N-methylthiazol-2-amine]",IC50,[1],0.01 to 100 nM
same,IC50,[2],> 1000 nM
"[2H]c1sc(N(c2c(CC)nc3ccc(C4CCN(S(C)(=O)=O)CC4)cn23)C([2H])([2H])[2H])nc1-c1ccc(F)cc1 [Compound 103, 4-(4-fluorophenyl)-N-(2-ethyl-6-(1-(methylsulfonyl)piperidin-4-yl)imidazo [1,2-a]pyridin-3-yl)-N-(d3-methyl)-(d-thiazol-2)-amine]",IC50,[1],0.01 to 100 nM
same,IC50,[2],100 to 500 nM
"CCc1nc2ccc(C3CCN(S(C)(=O)=O)CC3)cn2c1N(C)c1nc(-c2ccc(F)cc2)c(C(N)=O)s1 [Compound 137, 2-((2-ethyl-6-(1-(methylsulfonyl)piperidin-4-yl)imidazo[1,2-a]pyridin-3-yl)(methyl)amino)-4-(4-fluorophenyl)thiazole-5-carboxamide]",IC50,[1],0.01 to 100 nM
same,IC50,[2],> 1000 nM
"CCc1nc2ccc(C3CCN(CC4COC(=O)O4)CC3)cn2c1N(C)c1nc(-c2ccc(F)cc2)cs1 (stereo not drawn) [Compound 118, 4-((4-(2-ethyl-3-((4-(4-fluorophenyl)thiazol-2-yl)(methyl)amino)imidazo[1,2-a]pyridin-6-yl)piperidin-1-yl)methyl)-1,3-dioxolan-2-one]",IC50,[1],0.01 to 100 nM
same,IC50,[2],100 to 500 nM
"CCc1nc2ccc(N3CCN(CC#N)CC3)cn2c1N(C)c1nc(-c2ccc(F)cc2)cs1 [Compound 38, 2-(4-(2-ethyl-3-((4-(4-fluorophenyl)thiazol-2-yl)(methyl)amino)imidazo[1,2-a]pyridin-6-yl)piperazin-1-yl)acetonitrile]",IC50,[1],0.01 to 100 nM
same,IC50,[2],> 1000 nM
"CCc1nc2ccc(C3=CCOCC3)cn2c1N(C)c1nc(-c2ccc(Cl)cc2)cs1 [Compound 221, 4-(4-chlorophenyl)-N-(6-(3,6-dihydro-2H-pyran-4-yl)-2-ethylimidazo[1,2-a]pyridin-3-yl)-N-methylthiazol-2-amine]",IC50,[1],0.01 to 100 nM
same,IC50,[2],> 1000 nM
"CCc1nc2ccc(C3CCNCC3)cn2c1N(C)c1nc(-c2ccc(F)cc2)cs1 [Compound 216, N-(2-ethyl-6-(piperidin-4-yl)imidazo[1,2-a]pyridin-3-yl)-4-(4-fluorophenyl)-N-methylthiazol-2-amine]",IC50,[1],0.01 to 100 nM
same,IC50,[2],> 1000 nM
"CCc1nc2ccc(N3CC(NC(=O)CN4CC(O)C4)C3)cn2c1N(C)c1nc(-c2ccc(F)cc2)cs1 [Compound 179, N-(1-(2-ethyl-3-((4-(4-fluorophenyl)thiazol-2-yl)(methyl)amino)imidazo[1,2-a]pyridin-6-yl)azetidin-3-yl)-2-(3-hydroxyazetidin-1-yl)acetamide]",IC50,[1],0.01 to 100 nM
same,IC50,[2],> 1000 nM
"CCc1nc2ccc(C3=CCN(S(C)(=O)=O)CC3)cn2c1N(C)c1nc(-c2ccc(Cl)cc2)cs1 [Compound 209, 4-(4-chlorophenyl)-N-(2-ethyl-6-(1-(methylsulfonyl)-1,2,3,6-tetrahydropyridin-4-yl)imidazo[1,2-a]pyridin-3-yl)-N-methylthiazol-2-amine]",IC50,[1],0.01 to 100 nM
same,IC50,[2],> 1000 nM
"CCc1nc2ccc(C3CCN(C(=O)OC(C)(C)C)CC3)cn2c1N(C)c1nc(-c2ccc(F)cc2)cs1 [Compound 219, tert-butyl 4-(2-ethyl-3-((4-(4-fluorophenyl)thiazol-2-yl)(methyl)amino)imidazo[1,2-a]pyridin-6-yl)piperidine-1-carboxylate]",IC50,[1],0.01 to 100 nM
same,IC50,[2],> 1000 nM
"CCc1nc2ccc(C3=CCN(S(=O)(=O)CCl)CC3)cn2c1N(C)c1nc(-c2ccc(F)cc2)cs1 [Compound 67, N-(6-(1-(chloromethylsulfonyl)-1,2,3,6-tetrahydropyridin-4-yl)-2-ethylimidazo[1,2-a]pyridin-3-yl)-4-(4-fluorophenyl)-N-methylthiazol-2-amine]",IC50,[1],0.01 to 100 nM
same,IC50,[2],> 1000 nM
"CCc1nc2ccc(N3CCN(CC(=O)N4CC(O)C4)CC3)cn2c1N(C)c1nc(-c2ccc(F)cc2)cs1 [Compound 24, 2-(4-(2-ethyl-3-((4-(4-fluorophenyl)thiazol-2-yl)(methyl)amino)imidazo[1,2-a]pyridin-6-yl)piperazin-1-yl)-1-(3-hydroxyazetidin-1-yl)ethanone]",IC50,[1],0.01 to 100 nM
same,IC50,[2],100 to 500 nM
